Earlier results as cited in patent US20230019058A1, “METHOD FOR THE TREATMENT OF VIRAL INFECTIONS” (Softhale NV, priority 2020, published 2023).

Columns and labels:
SARS-CoV-2 = conditions: reported by S. Matsuyama et al., read-out: effective concentration to block SARS-CoV-2 replication (EC90); cited from earlier work
[1] = system: respiratory syncytial virus; conditions: reported by S. Matsuyama et al.; cited from earlier work
human coronavirus = conditions: cultured cells; reported by S. Matsuyama et al.; cited from earlier work
influenza virus = conditions: reported by S. Matsuyama et al.; cited from earlier work

CC(C)C(=O)OCC(=O)[C@@]12O[C@H](C3CCCCC3)O[C@@H]1C[C@H]1[C@@H]3CCC4=CC(=O)C=C[C@]4(C)[C@H]3[C@@H](O)C[C@@]12C [ciclesonide, (11β, 16α)-16, 17-[[(R)-cyclohexylmethylene]bis(oxy)]-11-hydroxy-21-(2-methyl-1-oxopropoxy)-pregna-1,4-diene-3,20-dione]
EC90 (SARS-CoV-2): 6.3 µM
suppression of replication of respiratory syncytial virus [1]: did not suppress
suppression of human coronavirus replication (human coronavirus): suppressed human coronavirus replication
suppression of replication of influenza virus (influenza virus): did not suppress
